Source: patent US20210008048A1, “COMPOSITIONS AND METHODS FOR CANCER TREATMENT” (Dana-Farber Cancer Institute, Inc., priority 2018, published 2021)
Values joined by “and” are separate entries in the source; they are usually repeats but may differ in a detail not shown here. Equal entries are not always repeated.

Tests used:
[1] = cited from earlier work
TLR8 [2] = molecular target: T1, TLR8 (Homo sapiens, UniProt Q9NR97); conditions: even at high concentrations (>10 μg/ml); cited from earlier work
T1 construct: expressed in transfected cells; host or cells: HEK293
T1 sequence (Q9NR97 27-1041): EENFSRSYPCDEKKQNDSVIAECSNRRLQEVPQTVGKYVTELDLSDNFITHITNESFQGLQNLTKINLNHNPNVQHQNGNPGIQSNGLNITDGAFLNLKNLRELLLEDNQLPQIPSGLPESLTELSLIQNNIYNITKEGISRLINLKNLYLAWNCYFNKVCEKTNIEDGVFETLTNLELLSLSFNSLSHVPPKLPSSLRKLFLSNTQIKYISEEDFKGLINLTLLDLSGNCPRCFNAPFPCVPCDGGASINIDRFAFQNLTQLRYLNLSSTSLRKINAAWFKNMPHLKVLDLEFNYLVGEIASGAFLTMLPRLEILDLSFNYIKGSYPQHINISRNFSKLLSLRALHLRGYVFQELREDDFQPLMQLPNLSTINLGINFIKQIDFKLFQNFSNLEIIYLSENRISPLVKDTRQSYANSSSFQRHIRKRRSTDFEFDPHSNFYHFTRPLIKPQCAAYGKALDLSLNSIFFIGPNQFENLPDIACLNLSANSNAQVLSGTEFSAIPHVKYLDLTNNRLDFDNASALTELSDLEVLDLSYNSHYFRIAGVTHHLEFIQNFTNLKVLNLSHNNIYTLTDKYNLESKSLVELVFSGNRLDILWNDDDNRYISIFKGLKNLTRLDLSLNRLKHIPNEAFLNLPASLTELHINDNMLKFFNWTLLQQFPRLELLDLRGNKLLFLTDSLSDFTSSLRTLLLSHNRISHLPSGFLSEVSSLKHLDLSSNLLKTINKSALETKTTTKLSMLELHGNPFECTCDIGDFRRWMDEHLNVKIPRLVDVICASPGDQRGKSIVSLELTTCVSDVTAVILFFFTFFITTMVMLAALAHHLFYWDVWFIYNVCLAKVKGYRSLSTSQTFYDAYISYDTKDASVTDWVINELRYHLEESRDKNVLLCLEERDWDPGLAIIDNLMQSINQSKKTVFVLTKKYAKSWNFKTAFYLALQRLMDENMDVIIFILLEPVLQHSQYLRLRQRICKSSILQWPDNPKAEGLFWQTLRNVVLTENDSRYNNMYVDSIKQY

TLR7 [3] = molecular target: T2, TLR7 (Homo sapiens, UniProt Q9NYK1); conditions: TLR7-transfected HEK293 cells, cited from earlier work
T2 construct: expressed in transfected cells; host or cells: HEK293
T2 sequence (Q9NYK1 27-1049): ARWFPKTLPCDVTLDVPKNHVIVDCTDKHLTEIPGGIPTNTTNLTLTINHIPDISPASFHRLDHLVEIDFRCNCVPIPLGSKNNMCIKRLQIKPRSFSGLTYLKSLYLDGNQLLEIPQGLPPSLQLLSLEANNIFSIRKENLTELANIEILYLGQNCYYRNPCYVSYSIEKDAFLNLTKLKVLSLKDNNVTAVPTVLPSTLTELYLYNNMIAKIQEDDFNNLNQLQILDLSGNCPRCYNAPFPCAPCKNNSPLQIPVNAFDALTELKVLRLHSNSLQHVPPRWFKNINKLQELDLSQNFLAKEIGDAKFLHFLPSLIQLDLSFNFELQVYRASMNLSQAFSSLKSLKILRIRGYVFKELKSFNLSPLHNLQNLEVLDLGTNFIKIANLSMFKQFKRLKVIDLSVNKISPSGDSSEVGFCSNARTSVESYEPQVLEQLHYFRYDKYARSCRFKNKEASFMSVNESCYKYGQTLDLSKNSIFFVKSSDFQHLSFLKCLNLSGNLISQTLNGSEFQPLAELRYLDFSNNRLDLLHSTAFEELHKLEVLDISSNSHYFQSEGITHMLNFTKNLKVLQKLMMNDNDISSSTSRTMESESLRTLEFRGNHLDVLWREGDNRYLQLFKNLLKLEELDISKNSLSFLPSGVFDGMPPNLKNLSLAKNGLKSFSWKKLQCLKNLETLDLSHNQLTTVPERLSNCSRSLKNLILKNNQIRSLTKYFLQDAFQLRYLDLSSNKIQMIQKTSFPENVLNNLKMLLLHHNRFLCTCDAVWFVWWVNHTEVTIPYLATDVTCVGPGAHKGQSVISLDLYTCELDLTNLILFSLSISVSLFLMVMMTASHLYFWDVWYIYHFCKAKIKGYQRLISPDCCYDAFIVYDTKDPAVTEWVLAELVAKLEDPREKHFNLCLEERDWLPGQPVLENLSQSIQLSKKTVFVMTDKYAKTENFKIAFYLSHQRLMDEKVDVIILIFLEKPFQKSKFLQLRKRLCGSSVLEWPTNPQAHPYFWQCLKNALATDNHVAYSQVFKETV

TLR7 [4] = molecular target: T2, TLR7; conditions: concentrations as low as; cited from earlier work
TLR8 [5] = molecular target: T1, TLR8; conditions: TLR8-transfected HEK293 cells, cited from earlier work
[6] = system: 4T1-Luc2 breast cancer cells; assay: Survival after resection of orthotopic 4T1-Luc2 tumors with a loaded hydrogel implanted at the resection site; format: in vivo, female BALB/cJ mice; conditions: crosslinked hyaluronic acid hydrogel loaded with the agent placed in tumor resection site on day 10 post-tumor inoculation; extended local release; versus empty hydrogel
Description: The hydrogels for FIG. 1 were prepared according to the methods described for hydrogel 1 in Table 1. 120 μL of a hyaluronic acid solution (2.0% w/v GLYCOSIL) was pipetted into a mold. One mg of a p38 MAPK inhibitor (e.g., losmapimod (Selleckchem)) was dissolved in 10 μL DMSO, and this solution was added to the hyaluronic acid solution in the mold. Following mixing to create a homogeneous distribution of the payload, 30 μL of a PEG-diacrylate crosslinker solution (12.5% w/v EXTRALINK) was pipetted into the mold. The crosslinked hydrogel solidified in the mold over the course of a few minutes. Female BALB/cJ mice were inoculated orthotopically with 4T1-Luc2 breast cancer cells in their fourth mammary fat pad. On day 10 post-tumor inoculation, tumors (˜100 mm^3) were resected, and a hydrogel (e.g., a crosslinked hyaluronic acid hydrogel) loaded with a p38 MAPK inhibitor (e.g., losmapimod) was placed in the tumor resection site. Empty hydrogel was used as a negative control.
The hydrogels for FIG. 2 were prepared according to the methods described for hydrogel 1 in Table 1. 120 μL of a hyaluronic acid solution (2.0% w/v GLYCOSIL) was pipetted into a mold. Five hundred μg (40 μL) of an anti-IL-1β antibody (e.g., clone B122 (BioXCell)) was added to the hyaluronic acid solution in the mold. […]

Question: With `CCOCc1nc2c(N)nc3ccccc3c2[nH]1` [CL097] as the molecule, how does the water solubility [1] read?
Answer: The water solubility was at least 20 mg/mL.

Question: For `CCCCNc1nc(N)c2nc(O)n(Cc3ccc(C(=O)NCC(=O)O)cc3)c2n1` [CL264], which TLR8 stimulation (TLR8 [2]) is on record?
Answer: Its TLR8 stimulation is “does not stimulate TLR8”.

Question: What about the “concentration inducing NF-κB activation” value (TLR7 [3]) of the same molecule?
Answer: The value was 0.1 µM.

Question: And the “concentration triggering NF-κB activation, times less than imiquimod” value (TLR7 [3]; relative to imiquimod)?
Answer: Its value is 5-10 times.

Question: Which “concentration inducing robust NF-κB activation” value (TLR7 [4]) does the source give for `CCCCNc1nc(N)c2nc(O)n(Cc3ccc(C(=O)NCC(=O)NCCCNCCCCNCCCN)cc3)c2n1` [CL307, N1-glycinyl[4-((6-amino-2-(butylamino)-8-hydroxy-9H-purin-9-yl)methyl)benzoyl] spermine] here?
Answer: The value was 20 nM and 10 ng/ml.

Question: What does the source list for `CCOC(=O)C1=Cc2ccc(-c3cccc(C#N)c3)cc2N=C(N)C1` [TL8-506]?
Answer: potency in inducing NF-κB activation relative to CL075 (TLR8 [5]; more potent than CL075): ~25 ×; potency in inducing NF-κB activation relative to R848 (TLR8 [5]; more potent than R848): ~50 ×

Question: Which “survival (Kaplan-Meier)” value [6] does the source give for `Cc1c(F)cc(C(=O)NC2CC2)cc1-c1ccc(C(=O)NCC(C)(C)C)cn1` [losmapimod] here?
Answer: The value was “Prolonged survival benefit”.
